From article PMC4658336, “Identification and activity of inhibitors of the essential nematode-specific metalloprotease DPY-31” (Bioorganic & Medicinal Chemistry Letters, 2015)
Where a SMILES comes first, the peptide text is derived from it.

Key:
[1] = molecular target: T1, recombinant DPY-31 from B. malayi (Brugia malayi, UniProt A8Q2D1); assay: rDPY-31 absorbance assay (astacin assay, Suc-Ala-Ala-Ala-pNA substrate); assay type: biochemical; details: ±standard error; 3 h pre-incubation, 37 °C, pH 8.0; read-out: pIC50 rDPY-31 B. malayi (converted)
T1 construct: made in house; host or cells: E. coli (inferred from the codon optimisation and the pET28a(+) vector)
T1 sequence (A8Q2D1 211-410): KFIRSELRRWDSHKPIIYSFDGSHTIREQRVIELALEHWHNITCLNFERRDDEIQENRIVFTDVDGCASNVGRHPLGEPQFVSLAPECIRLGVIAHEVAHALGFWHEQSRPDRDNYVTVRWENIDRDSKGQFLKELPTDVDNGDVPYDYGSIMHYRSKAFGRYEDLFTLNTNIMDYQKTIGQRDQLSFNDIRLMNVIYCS
Description: (§1) In total, 104 compounds were screened against recombinant DPY-31 from both the human parasite B. malayi as well as the sheep GI parasite T. circumcincta using an absorbance assay.[(i)], [10] […] This may be due to the extremely slow binding kinetics of these inhibitors.[17]
(§2) The 684bp and 675bp sequences encoding the astacin domains of T. circumcincta DPY-31, and B. malayi DPY-31, were codon-optimised for E. coli by GeneArt (Life Technologies), and cloned into vector pMA-T. These plasmids were then inserted into the pET28a(+) vector, expression of the encoded proteins was induced and the resulting proteins were purified following the methods described previously. Zinc metalloprotease assays were performed to determine the activity of the recombinant DPY-31 proteins from these nematode species, using the previously described method.^18
(§3) An astacin assay was performed to determine the inhibitory activity of all compounds against recombinant DPY-31 from the two nematode species. Briefly, 150 µg/ml of recombinant enzyme was incubated with 0.1 mM ZnCl2 and various concentrations (5 µM to 400 µM) of compound, and the volume was made up to a total of 100 µl with 50 mM NaPO4, pH 8.0 buffer. […] Absorbance was measured on a plate reader at 405 nm. […]

[2] = system: free-living wild-type C. elegans N2; assay: Phenotypic screening against C. elegans N2 larvae; assay type: in vivo, Caenorhabditis elegans; details: for phenotype induced: C. elegans N2, 96 well plate, 3 days, 50 μM to 2 mM
Method: (§4) These compounds were tested against three strains: free-living wild-type C. elegans N2, the T. circumcincta dpy-31 transgenically-rescued C. elegans dpy-31 mutant TP224, and parasitic T. circumcincta (Fig. 4). Phenotypes were evaluated in 96 well plate format over the course of 3 days using concentrations ranging from 50 μM to 2 mM. […] The similarity of these effects between wild-type C. elegans, the mutant strain, and T. circumcincta reinforces the conserved nature of this metalloprotease.
Compounds 8 and 9 were screened against C. elegans N2 L4s using 96-well plates. A single L4 was placed into each well in a total volume of 100 µL, made up of compound, M9 buffer and 5 µl 10x concentrated food (E. coli strain OP50), and incubated at 20 °C for 3 days, with the effects on the phenotypes recorded daily. The compounds were screened in duplicate at concentrations ranging from 50 µM to 2 mM. Actinonin (100 µM) was used as a positive control.^18 Representative offspring were transferred onto 2% agarose/0.01% azide pads on slides and viewed with a Zeiss Axioskop2 microscope. Images were taken using an AxioCam camera and Axiovision software.

[3] = system: T. circumcincta dpy-31 transgenically-rescued C. elegans dpy-31 mutant TP224; assay: Phenotypic screening against transgenic rescue strain TP224; assay type: in vivo, Caenorhabditis elegans; details: for phenotype induced: TP224, 96 well plate, 3 days, 50 μM to 2 mM
Method: as §4
Compounds 8 and 9 were screened against C. elegans N2 or TP224 L4s at 100, 250 and 1000 µM, using 96-well plates. A single L4 was placed into each of the wells in a total volume of 100 µl, made up of compound, M9 buffer and 5 µl 10x concentrated OP50. The compound concentrations were tested in duplicate for each compound. The plates were sealed with gas-permeable covers and incubated at 20 °C for 3 days, with the effects on the phenotypes recorded daily. Representative worm images were taken as described in section 5.1.

[4] = system: parasitic T. circumcincta; assay: Phenotypic screening against T. circumcincta L1s and L3s; assay type: in vivo, Teladorsagia circumcincta; details: for phenotype induced: T. circumcincta, 96 well plate, 50 μM to 2 mM
Method: as §4
T. circumcincta L1s or exsheathed L3s were incubated with compounds 8 and 9 at 100, 500 and 1000 µM. 10-20 L1s were incubated per well of a 96-well plate, each well containing compound, 5 µl 10x concentrated OP50 and EBSS (Earle’s Balanced Salt Solution; Life Technologies) to 100 µl, and 10-20 L3s were incubated per well of a 96-well plate, each well containing compound and EBSS to 100 µl. Each compound was tested in duplicate for all concentrations. The plates were sealed with gas-permeable covers and incubated at 26 °C (L1s) or 40 °C (L3s) at 100 rpm for 7-8 days and any observations on development were recorded. Representative worm images were taken as described in section 5.1.

[5] = molecular target: T2, recombinant DPY-31 from T. circumcincta (Teladorsagia circumcincta, UniProt A0A0C5PRQ1); assay: rDPY-31 absorbance assay (astacin assay, Suc-Ala-Ala-Ala-pNA substrate); assay type: biochemical; details: T. circumcincta enzyme; species not given; read-out: IC50 rDPY-31 (in vitro absorbance assay)
T2 construct: made in house; host or cells: E. coli (inferred from the codon optimisation and the pET28a(+) vector)
T2 sequence (A0A0C5PRQ1 151-614): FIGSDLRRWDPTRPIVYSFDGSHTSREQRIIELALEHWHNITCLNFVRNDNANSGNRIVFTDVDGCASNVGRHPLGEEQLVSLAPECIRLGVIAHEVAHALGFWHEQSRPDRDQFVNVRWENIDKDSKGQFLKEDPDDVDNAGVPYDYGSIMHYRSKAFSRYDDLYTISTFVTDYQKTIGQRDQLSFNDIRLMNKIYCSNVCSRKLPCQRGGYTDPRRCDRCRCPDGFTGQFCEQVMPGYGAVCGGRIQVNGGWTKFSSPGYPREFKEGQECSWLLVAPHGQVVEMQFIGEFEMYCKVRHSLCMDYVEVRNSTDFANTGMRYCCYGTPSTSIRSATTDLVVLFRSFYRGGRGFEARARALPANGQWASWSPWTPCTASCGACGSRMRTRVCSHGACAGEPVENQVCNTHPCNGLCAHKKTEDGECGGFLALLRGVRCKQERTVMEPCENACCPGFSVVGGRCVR
Description: as §1, §2, §3

crayfish astacin = system: crayfish astacin; parameters: method as in PMID 8756323; details: cited from earlier work

Compound	phenotype induced [2]	phenotype induced [3]	phenotype induced [4]	further results
CNC(=O)[C@@H](NC(=O)[C@H](CC(C)C)[C@H](O)C(=O)NO)C(C)(C)C [Compound 3, marimastat]				IC50 [1]: 200 µM
C[C@H](NC(=O)[C@@H]1CCCN1C(=O)OC(C)(C)C)C(=O)N[C@@H](Cc1ccccc1)C(=O)NO [Compound 8] (HELM PEPTIDE1{[CC(C)(C)OC(=O)[*:2]].P.A.F.[ON[*:1]]}$$$$V2.0)	induce the Dpy phenotype	induce the Dpy phenotype	induce the Dpy phenotype	phenotype observed (Figure 4b) ([2]; L1 C. elegans (N2), 50 μM): Dpy phenotype; phenotype observed (Figure 4d) ([3]; L1 TP224, 100 μM): Dpy L1 phenotype
C[C@H](NC(=O)[C@@H]1CCCN1C(=O)OCC1c2ccccc2-c2ccccc21)C(=O)N[C@@H](Cc1ccccc1)C(=O)NO [Compound 9] (HELM PEPTIDE1{[O=C(OCC1c2ccccc2-c2ccccc21)[*:2]].P.A.F.[ON[*:1]]}$$$$V2.0)	induce the Dpy phenotype	induce the Dpy phenotype	induce the Dpy phenotype	phenotype observed (Figure 4f) ([4]; T. circumcincta L3, 500 μM): Dpy phenotype
COC(=O)C1CCCN1C(=O)C(C)CP(=O)(O)C(Cc1ccccc1)NC(=O)C(CCCCN)NC(=O)C1CCCN1C(=O)OCc1ccccc1 (stereo not drawn) [Compound 1]				IC50 [5]: > 500 µM; inhibition of crayfish astacin (crayfish astacin): mid-μM inhibitor
